Drawing on BindingDB's records for PubMed 39167893 (University of Petroleum and Energy Studies), this text covers IC50 for one compound.

In this assay the target is KRas/Son of Sevenless Homolog 1 (Homo sapiens, UniProt P01116+Q07889). The assay can be described thus: Inhibition of KRAS G12D mutant/SOS1 (unknown origin) interaction by TR-FRET assay.

Molecules are shown by their SMILES.

The IC50 is the midpoint of a concentration-inhibition curve. A low value points to higher potency.

KRas/Son of Sevenless Homolog 1, sequence (P01116 whole entry G12D): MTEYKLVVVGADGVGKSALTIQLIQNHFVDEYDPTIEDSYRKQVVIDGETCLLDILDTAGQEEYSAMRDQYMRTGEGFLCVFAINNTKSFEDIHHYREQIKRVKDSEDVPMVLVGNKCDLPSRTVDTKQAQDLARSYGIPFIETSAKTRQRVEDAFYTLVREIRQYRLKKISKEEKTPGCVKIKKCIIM
KRas/Son of Sevenless Homolog 1, sequence (Q07889 whole entry): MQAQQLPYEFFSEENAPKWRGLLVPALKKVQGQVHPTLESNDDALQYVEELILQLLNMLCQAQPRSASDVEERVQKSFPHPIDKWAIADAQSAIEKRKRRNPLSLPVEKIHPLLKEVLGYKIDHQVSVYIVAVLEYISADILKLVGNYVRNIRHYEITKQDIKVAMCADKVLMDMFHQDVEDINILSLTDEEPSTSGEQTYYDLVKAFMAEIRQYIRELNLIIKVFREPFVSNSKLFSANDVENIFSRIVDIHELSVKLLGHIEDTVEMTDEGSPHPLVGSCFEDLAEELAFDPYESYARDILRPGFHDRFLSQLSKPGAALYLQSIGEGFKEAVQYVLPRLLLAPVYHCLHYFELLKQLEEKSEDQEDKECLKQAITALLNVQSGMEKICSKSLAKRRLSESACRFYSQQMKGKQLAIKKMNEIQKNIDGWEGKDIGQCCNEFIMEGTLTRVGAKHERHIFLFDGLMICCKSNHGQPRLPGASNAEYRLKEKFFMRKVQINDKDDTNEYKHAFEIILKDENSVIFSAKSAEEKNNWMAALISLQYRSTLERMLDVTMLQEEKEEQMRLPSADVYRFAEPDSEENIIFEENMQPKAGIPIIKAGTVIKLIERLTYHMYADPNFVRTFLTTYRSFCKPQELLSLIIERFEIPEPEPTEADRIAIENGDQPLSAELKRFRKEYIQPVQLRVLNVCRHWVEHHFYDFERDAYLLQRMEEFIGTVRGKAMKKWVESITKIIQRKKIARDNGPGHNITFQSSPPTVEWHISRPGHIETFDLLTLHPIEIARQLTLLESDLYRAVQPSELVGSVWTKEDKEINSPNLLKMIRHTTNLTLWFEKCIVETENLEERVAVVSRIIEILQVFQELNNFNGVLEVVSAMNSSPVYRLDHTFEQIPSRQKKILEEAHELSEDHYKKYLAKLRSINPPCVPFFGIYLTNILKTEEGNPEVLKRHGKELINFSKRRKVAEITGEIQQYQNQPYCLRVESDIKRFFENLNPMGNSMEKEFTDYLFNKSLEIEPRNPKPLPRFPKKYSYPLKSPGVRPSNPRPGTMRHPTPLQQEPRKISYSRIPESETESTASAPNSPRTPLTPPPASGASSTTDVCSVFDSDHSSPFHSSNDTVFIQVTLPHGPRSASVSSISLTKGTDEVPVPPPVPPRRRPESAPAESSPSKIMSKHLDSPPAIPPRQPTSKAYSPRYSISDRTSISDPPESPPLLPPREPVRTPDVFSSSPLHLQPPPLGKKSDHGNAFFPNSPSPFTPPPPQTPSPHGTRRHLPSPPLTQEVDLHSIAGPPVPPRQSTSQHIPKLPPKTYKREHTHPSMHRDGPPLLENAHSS

On to `Cn1cnc(Cn2ccc3ccc(CNCc4[nH]c5ccccc5c4[C@H]4NC(=O)c5ccc(O)cc54)cc32)c1`, for which the IC50 was 450 nM.
